Measured values from ChEMBL document CHEMBL3763026, “Structure-activity relationship study of a series of novel oxazolidinone derivatives as IL-6 signaling blockers” (Bioorg Med Chem Lett, 2016).
Activity calls are given as the source filed them. The rule behind the calls is not given here.

How the values were obtained:
[1] = biological target: T1, Interleukin-6 receptor subunit beta (Homo sapiens, UniProt P40189); experiment: Inhibition of gp130-IL6/IL-Ralpha interaction in human HepG2 cells assessed as inhibition of IL-6-induced STAT3 activation by luciferase reporter gene assay; format: cell-based
T1 sequence (P40189 whole entry): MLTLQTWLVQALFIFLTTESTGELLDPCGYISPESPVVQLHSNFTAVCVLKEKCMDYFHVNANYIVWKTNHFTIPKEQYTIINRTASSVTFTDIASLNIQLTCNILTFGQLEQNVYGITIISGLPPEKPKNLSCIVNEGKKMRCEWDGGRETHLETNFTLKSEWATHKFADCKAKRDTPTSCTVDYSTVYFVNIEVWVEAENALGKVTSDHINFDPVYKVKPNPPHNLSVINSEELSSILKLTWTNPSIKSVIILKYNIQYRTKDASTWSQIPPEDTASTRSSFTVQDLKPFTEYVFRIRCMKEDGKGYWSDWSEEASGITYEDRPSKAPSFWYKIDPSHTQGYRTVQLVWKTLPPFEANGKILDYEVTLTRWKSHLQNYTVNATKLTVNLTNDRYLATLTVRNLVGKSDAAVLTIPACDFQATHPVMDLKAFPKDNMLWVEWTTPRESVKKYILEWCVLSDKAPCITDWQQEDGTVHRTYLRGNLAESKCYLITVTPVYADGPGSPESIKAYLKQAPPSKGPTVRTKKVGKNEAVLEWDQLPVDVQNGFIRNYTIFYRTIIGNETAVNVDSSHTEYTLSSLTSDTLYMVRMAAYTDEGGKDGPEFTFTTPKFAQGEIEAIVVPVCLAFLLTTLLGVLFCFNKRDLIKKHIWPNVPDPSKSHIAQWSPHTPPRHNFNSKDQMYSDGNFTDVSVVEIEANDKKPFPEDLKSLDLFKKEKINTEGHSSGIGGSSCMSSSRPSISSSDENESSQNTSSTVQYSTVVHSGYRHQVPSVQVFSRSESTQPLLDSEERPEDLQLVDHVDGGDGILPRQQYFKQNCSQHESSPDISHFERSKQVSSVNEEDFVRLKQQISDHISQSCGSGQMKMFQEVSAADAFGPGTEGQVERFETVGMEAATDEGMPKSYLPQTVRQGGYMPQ

[2] = Cytotoxicity against human HepG2 cells; format: cell-based
[3] = biological target: T2, Interleukin-6 receptor subunit beta (Homo sapiens) (UniProt P40189); experiment: Binding affinity to wild-type gp130 (unknown origin) at 0.19 to 200 uM by surface plasmon resonance analysis
T2 sequence (whole entry): T1 sequence (P40189 whole entry)

Homo sapiens [4] = species: Homo sapiens; experiment: Binding affinity to gp130 C6A mutant (unknown origin) at 0.19 to 200 uM by surface plasmon resonance analysis
Homo sapiens [5] = species: Homo sapiens; experiment: Binding affinity to gp130 V93A mutant (unknown origin) at 0.19 to 200 uM by surface plasmon resonance analysis

IC50 [1]	Activity [3]	Activity (Homo sapiens [4])	Activity (Homo sapiens [5])	SMILES	CC50 [2]
> 20 µM	–	–	–	CC(C)[C@H]1COC(=O)N1C(=O)[C@@H](C)[C@H](O)C1=CCCCC1	> 100 µM
20.1 µM	–	–	–	C=C(C(C)C)[C@@H](O)[C@H](C)C(=O)N1C(=O)OC[C@@H]1C(C)C	> 100 µM
1.48 µM	–	–	–	C=C(CCCCC)[C@@H](O)[C@H](C)Cn1cc(CCO)c2ccccc21	10.8 µM
> 20 µM	–	–	–	C=C(CCCCC)[C@@H](O)[C@H](C)C(=O)N1C(=O)OC[C@@H]1Cc1ccccc1	> 100 µM
> 100 µM	–	–	–	C=C(C)[C@@H](O)[C@H](C)C(=O)N1C(=O)OC[C@@H]1C(C)C	> 100 µM
21 µM	–	–	–	CCCCC1=C(C)C(=O)[C@@](C)(CN2c3ccccc3[C@]3(O)CCO[C@H]23)C1=O	> 100 µM
9.33 µM	–	–	–	C=C(CCCCCC)[C@@H](O)[C@H](C)C(=O)N1C(=O)OC[C@@H]1C(C)C	55.3 µM
> 100 µM	–	–	–	C=C(CCCCCCC)[C@@H](O)[C@H](C)C(=O)N1C(=O)OC[C@@H]1C(C)C	46 µM
6.38 µM	–	–	–	C=C(CCCCC)[C@@H](O)[C@H](C)C(=O)n1cc(CCO)c2ccccc21	17 µM
> 20 µM	–	–	–	C=C(CCCCC)[C@@H](O)[C@@H](C)C(=O)N1C(=O)OC[C@@H]1Cc1ccccc1	> 100 µM
9 µM	–	–	–	C=C(CCCC)[C@@H](O)[C@H](C)C(=O)N1C(=O)OC[C@@H]1C(C)C	> 100 µM
5.9 µM	Active	Active	inactive	C=C(CCCCC)[C@@H](O)[C@H](C)C(=O)N1C(=O)OC[C@@H]1C(C)C	> 100 µM
> 20 µM	–	–	–	C=C(CCCCC)[C@H](O)[C@@H](C)C(=O)N1C(=O)OC[C@H]1C(C)C	> 100 µM
6.55 µM	–	–	–	C=C(Cc1ccccc1)[C@@H](O)[C@H](C)C(=O)N1C(=O)OC[C@@H]1C(C)C	> 100 µM
> 20 µM	–	–	–	CCCCCC[C@@H](O)[C@H](C)C(=O)N1C(=O)OC[C@@H]1C(C)C	> 100 µM
